One series deals with ADJ/PC6 tumour. Kind of series: Antitumour test, ADJ/PC6 tumour, arachis oil intraperitoneal. It is filed as in vivo, Balb-c white mice.
A further series deals with Balb-c white mice. Kind of series: Toxicity (LD50 / deaths), arachis oil intraperitoneal.

Structures are written as SMILES.

Text for ADJ/PC6 tumour: Vehicle: Arachis oil/Intraperitoneal
Subject: Balb-c white mice
(§1) Again as with the results given earlier, the tumour was ADJ/PC6, the vehicle was Arachis oil administered intraperitoneally to Balb-c white mice.
Text for Balb-c white mice: Vehicle: Arachis oil/Intraperitoneal
Subject: Balb-c white mice
as §1

In the series with ADJ/PC6 tumour (table 9, line under Cl4 n-octyl, dose not stated), `CCCCCCCCN.CCCCCCCCN.[Cl][Pt]([Cl])([Cl])[Cl]` [Cl4 n-octyl] yielded an inhib of under 20%. The same compound yielded an LD50 with Balb-c white mice (table 9) of 270 mg/kg.
As to `[NH2][Pt]([NH2])([OH])([OH])([Cl])[Cl]` [trans di-hydroxo complexes of Pt(IV)], the “% Inhibition” value with ADJ/PC6 tumour (dose 12 mgm/Kgm, Balb-c mice) is listed as 95.4%; in the series on ADJ/PC6 tumour (dose 60 mgm/Kgm, Balb-c mice) it was 97.1%. The ED90 in the series with ADJ/PC6 tumour (table 1, doses in mgm/Kgm, Balb-c mice) was under 12 mg/kg. The compound also gave an LD50 with Balb-c white mice (table 1, doses in mgm/Kgm) of 135 mg/kg.
